Values joined by “and” are separate entries in the source; they are usually repeats but may differ in a detail not shown here. Equal entries are not always repeated. Where two headings read alike, the source gives them in different places. Each block holds one compound with its values, some of them ahead of it.
Key:
[1] = 50 mL SGF
Protocol: To determine and compare the gastric acid neutralizing capacity of sodium bicarbonate solution to carbicarb solution, the following experiment was performed.
(§1) Aqueous solutions to be tested were made up from starting materials sodium carbonate, (anhydrous, available from Mallinckrodt) and sodium bicarbonate (available from Mallinckrodt). An 8.4% sodium bicarbonate solution and an 8.4% carbicarb solution (containing equimolar amounts of sodium bicarbonate and sodium carbonate) were tested as follows.
50 mL simulated gastric fluid (SGF, prepared according to the procedure described in Example 1) was pipetted into an Erlenmeyer flask. Four drops of methyl red, then four drops of phenolphthalein were then added to the flask. The pH of solution was monitored with a pH electrode. The solution to be tested was added to a 5-mL buret. The gastric media in the flask was then titrated with the test solution to an endpoint within 0.2 pH units of pH 6.5 (as indicated by the color change and pH reading). Then, titration was resumed, to an endpoint within 0.2 pH units of pH 8.0 (as indicated by the color change and pH reading).

[2] = From the text: To quantify the gas produced by the neutralization of simulated gastric fluid (SGF) by carbicarb and by sodium bicarbonate in vitro, a standard CO2 assay technique was utilized (see USP 24 -NF 19 Beta, The United States Pharmacopeia 2000, p. 306)
as §1
The specimen gas was generated by reacting either 450 mL simulated gastric fluid (SGF) with 50 mL of the carbicarb solution; or by reacting 45 ml of simulated gastric fluid with 5 ml of sodium bicarbonate solution in a 500 mL Erlenmeyer flask.
To make Simulated Gastric Fluid (SGF) 1 g sodium chloride was transferred to a 500-mL volumetric flask. After adding 1.6 g pepsin, 25 mL 2 N hydrochloric acid was added and swirled to mix. The resultant solution could then be diluted to the appropriate volume with water.
The amount of gas generated in a twenty-minute time period was measured in an Orsat Glass Vapor Absorption Apparatus, by the standard assay technique. Two tests were run for each solution. The volume of CO2 generated was calculated from the difference in the initial volume of gas produced (ml) and the final volume of gas remaining (ml).

[3] = Storage stability of granules (potency and related substances); assay type: physicochemical; conditions: granules of Examples 4 and 5; 22°C for 21 days in closed containers
Protocol: Additionally, the granules prepared in Examples 4 and 5 were kept at 22°C for 21 days in closed containers.

[4] = Stability of lansoprazole in simulated gastric fluid (chromatographic assay); assay type: physicochemical; conditions: for % labeled amount of lansoprazole remaining: room temperature; for drug degraded: at 60 minutes in SGF
Protocol: Lansoprazole degrades in acid and is stable in base. This study was performed to determine 1) how quickly lansoprazole degrades in simulated gastric fluid (SGF); and 2) whether a high pH-buffering agent (carbicarb which is an equimolar mixture of sodium carbonate and sodium bicarbonate) could be used to retard the degradation of lansoprazole in SGF. All the experiments were conducted at room temperature (22°C ± 2°C).
The PPI test sample included lansoprazole (30 mg); mannitol (60 mg), meglumine (30 mg) and sodium hydroxide (3 mg).
Then 5.0 mL 2 N sodium hydroxide solution was added to the 0-minutes beaker with mixing. To each of the 5 remaining beakers, 10.0 mL of 8.4% carbicarb solution was added and stirred to mix. At the appropriate time interval (corresponding to the individual beaker numbers), 5.0 mL 2 N sodium hydroxide solution was added to stop the reaction. A portion of the resulting solution was diluted with pH 10 diluent. 10 µL of the resulting solution was then injected into the chromatographic system for assay.
Granular formulations of lansoprazole, including carbicarb were also made and tested. The stability of the granular formulations was tested according to the procedure of Example 3. The granular formulations of lansoprazole for this example were prepared as follows.
The coherent mass containing lansoprazole, carbicarb, lactose and sucrose solution was prepared as described above, in Example 3. This coherent mass was passed through a 20-mesh screen and the resulting granules were dried at 50°C for 12 hours. Granules containing 30-mg lansoprazole were transferred to an amber color container along with and an equal weight of flavor granules. 10 ml of water ((HPLC grade, Fisher Scientific, Pittsburgh, PA) was added to the container with gentle shaking to reconstitute the suspension. The resulting suspension of Lansoprazole was tested for stability in simulated gastric fluid as described earlier in Experiment 3.

[5] = 45 mL SGF and 5 mL test solution, gas generated in twenty minutes
[6] = 450 mL SGF and 50 mL test solution, ten-fold scale-up of the 45 mL/5 mL run

Volume of Acid Neutralizer Solution Required ([1]; pH of simulated gastric fluid after adding neutralizer 1.2): 0 mL
Volume of Acid Neutralizer Solution Required ([1]; pH of simulated gastric fluid after adding neutralizer 2.0): 3.47 mL
Volume of Acid Neutralizer Solution Required ([1]; pH of simulated gastric fluid after adding neutralizer 3.0): 4.09 mL
Volume of Acid Neutralizer Solution Required ([1]; pH of simulated gastric fluid after adding neutralizer 4.0): 4.19 mL
Volume of Acid Neutralizer Solution Required ([1]; pH of simulated gastric fluid after adding neutralizer 5.0): 4.27 mL
Volume of Acid Neutralizer Solution Required ([1]; pH of simulated gastric fluid after adding neutralizer 6.0): 4.48 mL
Volume of Acid Neutralizer Solution Required ([1]; pH of simulated gastric fluid after adding neutralizer 7.0): 5.00 mL
Volume of Acid Neutralizer Solution Required ([1]; pH of simulated gastric fluid after adding neutralizer 8.0): 6.20 mL
volume added into the gastric media to reach the endpoint ([1]; titration endpoint (pH not given; method: pH 6.5, then pH 8.0)): 4.71 mL
Volume of CO2 ([2]; 45 mL SGF and 5 mL test solution, difference of initial and residual gas volume): 2.9 mL and 5.3 mL
Initial Gas Volume [2, 5]: 93.0 mL and 82.0 mL
Residual Gas Volume [2, 5]: 90.1 mL and 76.7 mL
Initial Gas Volume [2, 6]: 930.0 mL and 820.0 mL
Residual Gas Volume [2, 6]: 901.0 mL and 767.0 mL
Volume of CO2 [2, 6]: 29.0 mL and 53.0 mL
Compound: O=C([O-])O.[Na+] [8.4% sodium bicarbonate solution, sodium bicarbonate]

stability on storage (potency and related substances) [3]: stable
% labeled amount of lansoprazole remaining ([4]; Sample in carbicarb solution, time in SGF 0 minutes): 98.0%
% labeled amount of lansoprazole remaining ([4]; Sample in carbicarb solution, time in SGF 5 minutes): 96.7%
% labeled amount of lansoprazole remaining ([4]; Sample in carbicarb solution, time in SGF 15 minutes): 97.4%
% labeled amount of lansoprazole remaining ([4]; Sample in carbicarb solution, time in SGF 30 minutes): 95.8%
% labeled amount of lansoprazole remaining ([4]; Sample in carbicarb solution, time in SGF 45 minutes): 94.4%
% labeled amount of lansoprazole remaining ([4]; Sample in carbicarb solution, time in SGF 60 minutes): 96.5%
% labeled amount of lansoprazole remaining ([4]; Sample in water, time in SGF 0 minutes): 99.5%
% labeled amount of lansoprazole remaining ([4]; Sample in water, time in SGF 5 minutes): 39.9%
% labeled amount of lansoprazole remaining ([4]; Sample in water, time in SGF 15 minutes): 10.1%
% labeled amount of lansoprazole remaining ([4]; Sample in water, time in SGF 30 minutes): 4.1%
% labeled amount of lansoprazole remaining ([4]; Sample in water, time in SGF 45 minutes): 2.7%
% labeled amount of lansoprazole remaining ([4]; Sample in water, time in SGF 60 minutes): 2.0%
time stable in simulated gastric fluid ([4]; administered with carbicarb into SGF): at least 60 minutes
degradation ([4]; administered with carbicarb into SGF, 60 minutes): < 5%
drug degraded ([4]; drug constituted with carbicarb solution): 3.5%
drug degraded ([4]; drug reconstituted with water): 98%
time stable in simulated gastric fluid ([4]; formulated with carbicarb as granules (Example 4)): at least 60 minutes
time stable in simulated gastric fluid ([4]; suspension reconstituted from lansoprazole/carbicarb granules (Example 5)): at least 60 minutes
Compound: Cc1c(OCC(F)(F)F)ccnc1C[S+]([O-])c1nc2ccccc2[nH]1 (stereo not shown) [lansoprazole]
